Measured values published in US8232253B2, “Treatment of lung cancer” (Ramot at Tel-Aviv University Ltd., priority 2006, dated 2012).

Columns and labels:
[1] = tested on: human NSCLC cell lines H1734, H2030, H1975, H3255; assay: Alamar blue viable cell assay in NSCLC cell lines; type: cell-based; conditions: increasing FTS concentrations, 96 hours; H1734, H2030 (KRAS mutations), H1975, H3255 (EGFR mutations)
Description: To determine whether FTS sensitized other human NSCLC cell lines to cell death, experiments were conducted on cell lines H1734 and H2030 (KRAS mutations) and H1975 and H3255 (EGFR mutations). The four cell lines were grown in increasing concentrations of FTS (dissolved in DMSO). After 96 hours, viable cells were quantified using an Alamar blue assay. Results are the mean±standard error of three independent experiments, in which there were 3 replicates of each condition, as shown in FIG. 15.

[2] = tested on: A549 cells; assay: Immunofluorescence of cytoskeleton (F-actin, vinculin) and cell morphology; type: cell-based, human; conditions: 75 μM FTS, 48 h
Description: A549 cells were plated on glass cover slips (2×10^4 cells/well in 6-well plates), incubated for 24 h in medium containing 5% FCS, and then incubated for 48 h with or without 75 μM FTS. The cells were fixed and permeabilized at room temperature by successive incubations with 3.7% formaldehyde (20 min) and 0.2% Triton X-100 in PBS (5 min), then washed for 5 min with UB buffer (150 mM NaCl, 10 mM Tris pH 7.6, and 0.2% sodium azide in PBS) and blocked with 2% BSA in UB (UBB, 5 min). The fixed cells were incubated successively with naïve goat IgG for 30 min (200 μg/ml, Jackson ImmunoResearch Laboratories, West Grove, Pa.), anti-vinculin Ab for 1 h (1:400, Sigma-Aldrich), goat anti-mouse Cy2-conjugated Ab for 1 h (1:200, Jackson), and rhodamine-labeled phalloidin for 1 h (1:1000, Sigma-Aldrich). Between each of the above steps the cells were washed for 30 min with UBB. Lastly, the cover slips were washed with UB, dried, and mounted onto the slides with Muviol. F-actin (red) and vinculin (green) were visualized with a Zeiss LSM 510 confocal microscope fitted with non-leaking green and red fluorescence filters. Co-localization was assessed using the co-localization function of the LSM 510 software. […]

[3] = tested on: A549 cells; assay: FACS analysis of cell cycle (propidium iodide); type: cell-based, human; conditions: for apoptotic population of cells (sub-G1): 75 μM FTS; for reduction in G1 population: FTS
Description: A549 cells were plated (9×10^5 cells) in 10-cm plates, incubated for 24 h in medium containing 5% FCS, and then incubated for 24 or 48 h with or without 75 μM FTS. The cells were collected, resuspended in PBS containing propidium iodide (50 μg/ml; Sigma) and 0.05% Triton X-100, and subjected to analysis by a fluorescence-activated cell sorter (FACSCalibur; Becton Dickinson, Los Angeles, Calif.).
To investigate the effect of FTS on lung cancer cell proliferation, we first incubated A549 cells that harbor the activated K-ras gene mutated at codon 12. A549 cells are commonly used as a model for drug screening. […] Increasing concentration of FTS inhibited A549 cell growth at a dose dependent rate, with a decrease of 50% at 40 μM FTS. The number of cells in the FTS-treated cultures was determined by direct counting of A549 cells grown for 6 days in the presence of FTS and was expressed as a percentage of the number recorded in the controls. Data were means of 12 counts ±SD. *P<0.01, **P<0.0005, compared to control (FIG. 3). In another set of experiments, cells were also treated for 24 and 48 h with FTS and collected for FACS analysis (FIG. 4). The apoptotic population of cells (indicated in the FACS analysis as sub-G1) was 3.8% at 24 h and 8.4% at 48 h in cells treated with 75 μM FTS, compared to 1.0% and 2.8%, respectively, in control cells (FIG. 4). […] Thus, FTS induced cell-cycle arrest in A549 cells, resulting in inhibition of cell growth.

[4] = tested on: A549 cells; assay: Anchorage-independent colony formation assay in soft agar; type: cell-based; conditions: Homo sapiens, A549, 456 h, 19 days, read-out: inhibition of A549 cell growth in soft agar
Description: Noble agar (2% and 0.6%; Difco, Detroit, Mich.) was prepared in water and autoclaved. The 2% agar was melted in a microwave oven, mixed 1:1 with medium (×2 Kaighn's modification of Ham's F-12 medium with 20% FCS, 100 U/ml penicillin, and 0.1 mg/ml streptomycin) and poured onto 96-well plates (50 μl per well) to provide the 1% base agar. The 0.6% agar (5 ml) was mixed with 5 ml of medium (×2), containing 8×10^4 A549 cells, and the mixture (50 μl) was plated on top of the base agar. The cells were incubated for 19 days at 37° C. with or without the indicated concentrations of FTS (6 wells for the control and for each treatment) and colonies were stained with MTT (1 mg/ml for 4 h). The colonies were then visualized by light microscopy, imaged, and counted using the ImagePro software. Next, to determine the effect of FTS on the anchorage-independent growth of A549 cells, a soft agar assay was performed. The cells were seeded in soft agar and treated with increasing concentrations of FTS 0 μM, 50 μM and 100 μM (FIGS. 12A-12B). Control cells were treated with 0.1% Me2SO4 (DMSO). FTS inhibited A549 cell growth in soft agar by 27±5.5% and 58±21% at 50 μM and 100 μM FTS, respectively. Thus, FTS inhibited the anchorage-independent growth of A549 cells.

[5] = tested on: HTB-58 cells; assay: HTB-58-cell-implanted nude mouse model, tumor growth; type: in vivo, nude mice; conditions: 10 mg/kg FTS i.p. daily
Description: Nude mice (6 weeks old) were housed in barrier facilities on a 12-h light/dark cycle. Food and water were supplied ad libitum. On day zero, A549 or HTB-58 cells (5×10^6 cells in 0.1 ml PBS) were implanted subcutaneously (s.c.) just above the right femoral joint. After 5 or 11 days the mice were separated randomly into control groups that had received only the vehicle and FTS-treated groups. Daily FTS treatments were administered either intraperitoneally (i.p.) or orally. Tumor volumes or weights were determined as described in Barkan, B., Starinsky, S., Friedman, E., Stein, R., Kloog, Y., Clin Cancer Res 12:5533-42 (2006). Gemcitabine treatment (36 mg/kg, i.p.) was administered every 4 days.
Tumor volume measured 14 days after cell implantation in that group was 0.02±0.045 cm^3 compared to 0.09±0.08 cm^3 in the vehicle-treated controls (P<0.05).

Q: How did the “sensitization of NSCLC cell lines to cell death” value [1] turn out when CC(C)=CCC/C(C)=C/CC/C(C)=C/CSc1ccccc1C(=O)O [FTS, S-farnesylthiosalicylic acid] was run?
A: Its value is “sensitized”.

Q: What about the “cells that had undergone changes in cell morphology” value [2] of the same molecule?
A: The value was “more than 80%”.

Q: What about the “apoptotic population of cells (sub-G1)” value ([3]; 24 h) of the same molecule?
A: Its value is 3.8%.

Q: And the “apoptotic population of cells (sub-G1)” value ([3]; 48 h)?
A: The value was 8.4%.

Q: And the “reduction in G1 population” value ([3]; 24 h)?
A: The value was 5.6%.

Q: What about the “reduction in G1 population” value ([3]; 48 h) of the same molecule?
A: Its value is 19%.

Q: What about the inhibition at 50 µM ([4]; 50 μM FTS) of the same molecule?
A: Its inhibition at 50 µM is 27 ± 5.5%.

Q: What about the inhibition at 100 µM ([4]; 100 μM FTS) of the same molecule?
A: Its inhibition at 100 µM is 58 ± 21%.

Q: What about the “inhibition of tumor growth” value [5] of the same molecule?
A: Its value is 76.4±48.8%.

Q: What about the tumor volume ([5]; 14 days after cell implantation) of the same molecule?
A: The tumor volume was 0.02±0.045 cm^3.
